Experimental data published in article PMC9254699 (Biomaterials science, 2021).
Each block holds one compound with its values, some of them ahead of it. No end group written: not given here.

Assays:
[1] = deemed target-related; cited from earlier work
ALK5 (TβRI) = settings: cited from earlier work
off-target kinases = settings: cited from earlier work
TGF-β1 [2] = target: T1, TGF-β1 (Homo sapiens, UniProt P01137); assay: surface plasmon resonance; assay type: binding; settings: for kon: read-out: association rate constant ka; for koff: read-out: dissociation rate constant kd
p38MAPK = settings: cited from earlier work
activin receptor ALK7 = settings: cited from earlier work
CK1δ = settings: cited from earlier work
RIPK2 = settings: cited from earlier work
activin receptor ALK4 = settings: cited from earlier work
TGF-β1 [3] = target: T1, TGF-β1; settings: cited from earlier work
TGF-β1 [4] = target: T1, TGF-β1; settings: cited from earlier work; remark: listed apart in the source
[5] = test system: mouse T-lymphocyte HT-2 cells; assay: HT-2 T-lymphocyte proliferation assay; assay type: cell-based
[6] = test system: mouse T-lymphocyte HT-2 cells; settings: cited from earlier work
[7] = test system: human umbilical vein endothelial cells (HUVECs); assay: HUVEC proliferation assay; assay type: cell-based; settings: HUVEC (Fig. S5)

T1 sequence (P01137 279-390 limits assumed, species assumed): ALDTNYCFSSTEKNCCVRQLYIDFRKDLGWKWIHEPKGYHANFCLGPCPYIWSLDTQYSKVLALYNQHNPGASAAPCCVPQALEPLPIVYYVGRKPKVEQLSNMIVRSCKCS

Compound: Cc1cccc(-c2nn3c(c2-c2ccnc4ccc(C(N)=O)cc24)CCC3)n1 [Galunisertib]
cardiac toxicity in preclinical development [1]: cardiac toxicities identified during preclinical development | inhibition of TβRI by galunisertib (ALK5 (TβRI)): small molecule inhibitor of TβRI | activity against off-target kinases (off-target kinases): strong activity against off-target kinases

kon (TGF-β1 [2]): 192000 M⁻¹ s⁻¹ | koff (TGF-β1 [2]): 0.0199 s⁻¹
Compound: CIAEIDLIPRDRPF [RIPΔ]

Compound: NC(=O)c1ccc(-c2nc(-c3ccc4c(c3)OCO4)c(-c3ccccn3)[nH]2)cc1 [SB-431542]
activity against p38MAPK (p38MAPK): activity | inhibition of ALK5 (TβRI) (ALK5 (TβRI)): small molecule inhibitor of ALK5 (TβRI) | activity against ALK7 (activin receptor ALK7): activity against activin receptors ALK4 and ALK7 | activity against CK1δ (CK1δ): activity | activity against RIPK2 (RIPK2): activity | activity against ALK4 (activin receptor ALK4): activity against activin receptors ALK4

Compound: CCCCc1nc(Cl)c(CO)n1Cc1ccc(-c2ccccc2-c2nn[nH]n2)cc1 [losartan, reference compound]
activity against TGF-β1, preclinical anti-fibrotic (TGF-β1 [3]): activity against TGF-β1 | direct binding to TGF-β1 or its receptors (TGF-β1 [4]): do not directly bind TGF-β1 or its receptors

kon (TGF-β1 [2]): 68500 M⁻¹ s⁻¹ | koff (TGF-β1 [2]): 0.0352 s⁻¹
Compound: CLIDFRIPADREVPI [Scrambled RIP]

Compound: CPQLGKFGDVRF [RIIP-1]
effect on HT-2 proliferation (fluorescence) vs own scrambled control ([5]; 10 μM soluble peptide, 0.1 ng/mL TGF-β1 (Fig. 2b)): not statistically different between RIIP-1 and its scrambled control

kon (TGF-β1 [2]): 140000 M⁻¹ s⁻¹ | koff (TGF-β1 [2]): 0.00836 s⁻¹
Compound: CIAEIDLIPRDRPFV [RIP]

Compound: TGF-β1: most abundant TGF-β isoform in adult tissues and platelets
IC50 of TGF-β1 in the HT-2 proliferation assay ([5]; IL-4 dependent proliferation, fluorescence-based cell viability assay): 0.05 ng/mL | IC50 ([5]; read-out: IC50 of TGF-β1 in the HT-2 proliferation assay (molar), IL-4 dependent proliferation, fluorescence-based cell viability assay): 3.9 pM | inhibition of IL-4 dependent HT-2 proliferation by TGF-β1 ([5]; soluble TGF-β1, fluorescence-based cell viability assay (Fig. 2a)): inhibited IL-4 dependent proliferation in a dose dependent manner | published IC50 value of TGF-β1 in HT-2 assay [6]: 0.04 to 0.2 ng/mL | TGF-β1 concentration of highest inhibition of HUVEC proliferation [7]: 41 pg/mL | TGF-β1 concentration of highest inhibition of HUVEC proliferation (molar) [7]: 3.2 pM | TGF-β1 concentration range suppressing HUVEC proliferation [7]: 10 to 1000 ng/mL

Compound: relaxin
activity against TGF-β1, preclinical anti-fibrotic (TGF-β1 [3]): activity against TGF-β1 | direct binding to TGF-β1 or its receptors (TGF-β1 [4]): do not directly bind TGF-β1 or its receptors

Compound: Cc1ccc(C(=O)Nc2ccc(S(=O)(=O)O)c3cc(S(=O)(=O)O)cc(S(=O)(=O)O)c23)cc1NC(=O)c1cccc(NC(=O)Nc2cccc(C(=O)Nc3cc(C(=O)Nc4ccc(S(=O)(=O)O)c5cc(S(=O)(=O)O)cc(S(=O)(=O)O)c45)ccc3C)c2)c1 [suramin, reference compound]
activity against TGF-β1, preclinical anti-fibrotic (TGF-β1 [3]): activity against TGF-β1 | direct binding to TGF-β1 or its receptors (TGF-β1 [4]): do not directly bind TGF-β1 or its receptors
